The source of these data is ChEMBL document CHEMBL3045300, “Synthesis of photolabile lac-acetogenin for photoaffinity labeling of mitochondrial complex I” (J Pestic Sci, 2006).

In general, IC50 refers to the midpoint of a concentration-inhibition curve. A high value points to a need for much substance. What is called inhibition is the percentage by which the read-out fell short of the control. A lower inhibition goes with little suppression.

Assay [1] is described as follows: Inhibition of Bos taurus (bovine) heart submitochondrial NADH complex 1 by NADH oxidase assay.
Assay [2] is filed under the species Bos taurus. Nature of the assay: Inhibition of Bos taurus (bovine) heart submitochondrial NADH complex 1 at 12 nM by NADH oxidase assay.

Turning to `O=C1N[C@H]2[C@H](CS[C@H]2CCCCC(=O)OCCCCCCC[C@@H](O)[C@H]2CC[C@H]([C@H]3CC[C@H]([C@H](O)CCCCCCOc4ccc(C5(C(F)(F)F)N=N5)cc4)O3)O2)N1`, half-maximal inhibition in assay [1] (IC50) was put at 3.9 nM. The compound further returned an inhibition in assay [2] of over 95%. `CCCCCCCCCC[C@@H](O)[C@H]1CC[C@H]([C@H]2CC[C@H]([C@H](O)CCCCCCCCCC)O2)O1` [dleta-lac-Acetogenin]: the IC50 in assay [1] was 1.8 nM.
